In the NIST ThermoML archive (doi:10.1016/j.tca.2016.06.015):
Numbers after ± are expanded uncertainties.

Test: molar heat capacity at constant pressure
Details: Liquid, Flow calorimetry

O [water]
3000 kPa
Details | molar heat capacity at constant pressure [J/K/mol]
305.9 K | 77.29 ± 4.9
315.6 K | 72.96 ± 4.7
325.4 K | 73.14 ± 4.7
335.8 K | 76.56 ± 4.9
345.8 K | 74.58 ± 4.7
354 K | 78.01 ± 5
366.2 K | 74.22 ± 4.7
381.2 K | 77.65 ± 5
394.4 K | 74.58 ± 4.7
407.3 K | 76.2 ± 4.9
419.9 K | 76.38 ± 4.9
433.9 K | 76.02 ± 4.9

CCCCCCCCCC [decane]
4000 kPa
Details | molar heat capacity at constant pressure [J/K/mol]
305.7 K | 293.1 ± 18
316.2 K | 305.91 ± 20
326.5 K | 304.48 ± 20
335.3 K | 315.87 ± 20
344 K | 324.4 ± 21
354.1 K | 322.98 ± 20
366.8 K | 327.25 ± 21
377.6 K | 340.05 ± 21
389.8 K | 335.78 ± 21
401.5 K | 344.32 ± 21
423.6 K | 361.4 ± 23
432.6 K | 367.09 ± 23
443.4 K | 372.78 ± 24
453.9 K | 377.05 ± 24
463.9 K | 389.85 ± 24
475.4 K | 396.97 ± 26
486.6 K | 419.73 ± 27
496 K | 414.04 ± 27
504.1 K | 432.54 ± 27
516.7 K | 415.46 ± 27
528.9 K | 424 ± 27
539.4 K | 433.96 ± 27
551.9 K | 453.88 ± 28
564.4 K | 453.88 ± 28
574.2 K | 470.95 ± 30
584.4 K | 488.03 ± 31
595.2 K | 507.95 ± 33
603.1 K | 513.64 ± 33
608.6 K | 486.6 ± 31
614.1 K | 497.99 ± 31
